Patent US10662204B2 (PFIZER INC., priority 2018, dated 2020)

Experiments:
[1] = target: T1, GDP-loaded KRAS (1-169) G12C, C51S, C80L, C118S (Homo sapiens, UniProt P01116, C118S/C51S/C80L/G12C); assay: Mass Spectrometry Reactivity Assay (MSRA): covalent adduct of compound and KRAS G12C, Percent Modification; format: binding; conditions: for MSRA (% modification) 10 μM 0.50 hr / MSRA (% modification) 10 μM 0.25 hr: 10 μM compound; for MSRA (% modification) 5.0 μM 0.25 hr / MSRA (% modification) 5.0 μM 0.017 hr: 5.0 μM compound
T1 construct: GDP-loaded KRAS (1-169) G12C, C51S, C80L, C118S
Method in brief: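 Covalent labelling is measured by intact mass: deconvoluted modified and unmodified peak intensities yield percent modification. Compound, usually 5 μM or 10 μM final, reacts at room temperature with 5 μM GDP-bound KRAS G12C (1-169, C51S/C80L/C118S) in Hepes pH 7.5/NaCl/glycerol, sampled at 1, 15, 30, 60 min.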

KRAS G12C = KRAS G12C (Homo sapiens, UniProt P01116, G12C); assay: Cell Activity Assay: accumulation of GDP-bound KRAS G12C in MIAPaCa-2 cells (Raf-1 RBD capture, MSD readout); format: cell-based; parameters: endogenous in cells; host or cells: MIAPaCa-2; conditions: 6 hours, assay limit is 30.00
Method in brief: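 IC50 came from a 4-parameter fit of Ras signal normalized between DMSO and full-inhibition controls. Readout: lysate GTP-Ras bound to immobilized Raf-1 RBD, quantified with pan-Ras antibody and MSD electrochemiluminescence. Lysates derived from MIAPaCa-2 cells treated 6 h with serially diluted compound, 0.3% DMSO.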

Structure (SMILES)	MSRA (% modification) 10 μM 0.50 hr [1] [%]	IC50 (KRAS G12C) [µM]	MSRA (% modification) 10 μM 0.25 hr [1] [%]	MSRA (% modification) 5.0 μM 0.25 hr [1] [%]	MSRA (% modification) 5.0 μM 0.017 hr [1] [%]
C=CC(=O)N1CCN(c2ncnc3c(Oc4c(C)ccc5[nH]nc(Cl)c45)nccc23)CC1 [Example 16C, 1-(4-{8-[(3-chloro-5-methyl-1H-indazol-4-yl)oxy]pyrido[3,4-d]pyrimidin-4-yl}piperazin-1-yl)prop-2-en-1-one]	7	22.2	–	–	–
C=CC(=O)N1CCN(c2nc(OC[C@@H]3CCCN3C)nc3c(Oc4c(Cl)c(F)cc5[nH]ncc45)cccc23)CC1 [Example 16E, 1-[4-(8-[(5-chloro-6-fluoro-1H-indazol-4-yl)oxy]-2-{[(2S)-1-methylpyrrolidin-2-yl]methoxy}quinazolin-4-yl)piperazin-1-yl]prop-2-en-1-one]	–	0.413	11	–	–
C=CC(=O)N1CCN(c2nc(NCCc3nncn3C)nc3c(Oc4c(C)ccc5[nH]ncc45)cccc23)CC1 [Example 16F, 1-[4-(8-[(5-methyl-1H-indazol-4-yl)oxy]-2-{[2-(4-methyl-4H-1,2,4-triazol-3-yl)ethyl]amino}quinazolin-4-yl)piperazin-1-yl]prop-2-en-1-one]	16	> 30	–	–	–
C=CC(=O)N1CCN(c2nc(OC[C@@H]3C[C@@H](F)CN3C)nc3c(Oc4c(Cl)c(F)cc5[nH]ncc45)nc(Cl)cc23)CC1 [Example 16G, 1-[4-(6-chloro-8-[(5-chloro-6-fluoro-1H-indazol-4-yl)oxy]-2-{[(2S,4R)-4-fluoro-1-methylpyrrolidin-2-yl]methoxy}pyrido[3,4-d]pyrimidin-4-yl)piperazin-1-yl]prop-2-en-1-one]	–	0.111	14	–	–
C=CC(=O)N1CCN(c2nc(OC[C@@H]3C[C@@H](F)CN3C)nc3c(Oc4c(Cl)c(F)cc5[nH]ncc45)nccc23)CC1 [Example 16H, 1-[4-(8-[(5-chloro-6-fluoro-1H-indazol-4-yl)oxy]-2-{[(2S,4R)-4-fluoro-1-methylpyrrolidin-2-yl]methoxy}pyrido[3,4-d]pyrimidin-4-yl)piperazin-1-yl]prop-2-en-1-one]	–	0.169	–	57	–
C=CC(=O)N1CCN(c2nc(OC3CCN(C)CC3)nc3c(Oc4c(Cl)c(F)cc5[nH]ncc45)nccc23)CC1 [Example 16I, 1-(4-{8-[(5-chloro-6-fluoro-1H-indazol-4-yl)oxy]-2-[(1-methyl-piperidin-4-yl)oxy]pyrido [3,4-d]pyrimidin-4-yl}piperazin-1-yl)prop-2-en-1-one]	–	0.582	–	48	–
C=CC(=O)N1CCN(c2ncnc3c(Oc4c(C)ccc5[nH]nc(C)c45)nccc23)CC1 [Example 17A, 1-(4-{8-[(3,5-dimethyl-1H-indazol-4-yl)oxy]pyrido[3,4-d]pyrimidin-4-yl}piperazin-1-yl)prop-2-en-1-one]	9	24.1	–	–	–
C=CC(=O)N1CCN(c2ncnc3c(Oc4c(Cl)c(F)cc5[nH]ncc45)cccc23)C[C@H]1C [Example 17C, 1-[(2R)-4-{8-[(5-chloro-6-fluoro-1H-indazol-4-yl)oxy]quinazolin-4-yl}-2-methylpiperazin-1-yl]prop-2-en-1-one]	24	2.6	–	–	–
C=CC(=O)N1CCN(c2nc(OC[C@H]3CCCN3C)nc3c(Oc4c(Cl)c(F)cc5[nH]ncc45)nccc23)CC1 [Example 17E, 1-[4-(8-[(5-chloro-6-fluoro-1H-indazol-4-yl)oxy]-2-{[(2R)-1-methylpyrrolidin-2-yl]methoxy}pyrido[3,4-d]pyrimidin-4-yl)piperazin-1-yl]prop-2-en-1-one]	83	0.197	80	76	–
C=CC(=O)N1CCN(c2nc(OCCNC(C)=O)nc3c(Oc4c(C)ccc5[nH]ncc45)cccc23)CC1 [Example 17F, N-[2-({4-(4-acryloylpiperazin-1-yl)-8-[(5-methyl-1H-indazol-4-yl)oxy]quinazolin-2-yl}oxy)ethyl]acetamide]	60	4.59	36	–	–
C=CC(=O)N1CCN(c2nc(OC[C@@H]3C[C@H](F)CN3C)nc3c(Oc4c(C)c(Cl)cc5[nH]ncc45)nc(Cl)cc23)CC1 [Example 17G, 1-[4-(6-chloro-8-[(6-chloro-5-methyl-1H-indazol-4-yl)oxy]-2-{[(2S,4S)-4-fluoro-1-methylpyrrolidin-2-yl]methoxy}pyrido[3,4-d]pyrimidin-4-yl)piperazin-1-yl]prop-2-en-1-one]	–	0.054	79	–	–
C=CC(=O)N1CCN(c2nc(O[C@@H]3CN(CC)C[C@H]3OC)nc3c(Oc4c(Cl)c(F)cc5[nH]ncc45)nccc23)CC1 [Example 17H, 1-[4-(8-[(5-chloro-6-fluoro-1H-indazol-4-yl)oxy]-2-{[(3R,4R)-1-ethyl-4-methoxypyrrolidin-3-yl]oxy}pyrido[3,4-d]pyrimidin-4-yl)piperazin-1-yl]prop-2-en-1-on]	–	0.026	–	–	69
C=CC(=O)N1CCN(c2nc(Oc3cccc4c3CCN(CC)C4)nc3c(Oc4c(Cl)c(F)cc5[nH]ncc45)nccc23)CC1 [Example 17I, 1-(4-{8-[(5-chloro-6-fluoro-1H-indazol-4-yl)oxy]-2-[(2-ethyl-1,2,3,4-tetrahydro-isoquinolin-5-yl)oxy]pyrido [3,4-d]pyrimidin-4-yl}piperazin-1-yl)prop-2-en-1-one]	–	0.005	–	–	82

More lines, now with the values ahead:

MSRA (% modification) 10 μM 0.50 hr [1] [%]	IC50 (KRAS G12C) [µM]	MSRA (% modification) 10 μM 0.25 hr [1] [%]	MSRA (% modification) 5.0 μM 0.25 hr [1] [%]	MSRA (% modification) 5.0 μM 0.017 hr [1] [%]	Structure (SMILES)
34	6.45	–	–	–	C=CC(=O)N1CCN(c2ncnc3c(Oc4c(C)ccc5[nH]ncc45)nc(C#N)cc23)CC1 [Example 18A, 4-(4-acryloylpiperazin-1-yl)-8-[(5-methyl-1H-indazol-4-yl)oxy]pyrido[3,4-d]pyrimidine-6-carbonitrile]
50	1.1	–	36	–	C=CC(=O)N1CCN(c2ncnc3c(Oc4c(Cl)c(F)cc5[nH]ncc45)cccc23)CC1 [Example 18C, 1-(4-{8-[(5-chloro-6-fluoro-1H-indazol-4-yl)oxy]quinazolin-4-yl}piperazin-1-yl)prop-2-en-1-one]
–	0.262	80	–	–	C=CC(=O)N1CCN(c2nc(OC[C@H]3CCN(C)C3)nc3c(Oc4c(Cl)c(F)cc5[nH]ncc45)nccc23)CC1 [Example 18E, 1-[4-(8-[(5-chloro-6-fluoro-1H-indazol-4-yl)oxy]-2-{[(3S)-1-methylpyrrolidin-3-yl]methoxy}pyrido[3,4-d]pyrimidin-4-yl)piperazin-1-yl]prop-2-en-1-one]
23	29.3	–	–	–	C=CC(=O)N1CCN(c2nc(N3CC4(C3)C(=O)NCN4C)nc3c(Oc4c(C)ccc5[nH]ncc45)cccc23)CC1 [Example 18F, 2-{4-(4-acryloylpiperazin-1-yl)-8-[(5-methyl-1H-indazol-4-yl)oxy]quinazolin-2-yl}-5-methyl-2,5,7-triazaspiro[3.4]octan-8-one]
–	0.07	–	–	52	C=CC(=O)N1CCN(c2nc(O[C@@H]3CN(CCOC)C[C@H]3OC)nc3c(Oc4c(Cl)c(F)cc5[nH]ncc45)nccc23)CC1 [Example 18H, 1-[4-(8-[(5-chloro-6-fluoro-1H-indazol-4-yl)oxy]-2-{[(3R,4R)-4-methoxy-1-(2-methoxyethyl)pyrrolidin-3-yl]oxy}pyrido[3,4-d]pyrimidin-4-yl)piperazin-1-yl]prop-2-en-1-one]
–	0.093	–	–	35	C=CC(=O)N1CCN(c2nc(O[C@@H]3CN(C)C[C@H]3OCC)nc3c(Oc4c(Cl)c(F)cc5[nH]ncc45)nccc23)CC1 [Example 18I, 1-[4-(8-[(5-chloro-6-fluoro-1H-indazol-4-yl)oxy]-2-{[(3R,4R)-4-ethoxy-1-methyl-pyrrolidin-3-yl]oxy}pyrido [3,4-d]pyrimidin-4-yl)piperazin-1-yl]prop-2-en-1-one]
33	28	21	–	–	C=CC(=O)N1CCN(c2ncnc3c(Oc4c(Cl)c(C)cc5[nH]ncc45)nc(C#N)cc23)CC1 [Example 19A, 4-(4-acryloylpiperazin-1-yl)-8-[(5-chloro-6-methyl-1H-indazol-4-yl)oxy]pyrido[3,4-d]pyrimidine-6-carbonitrile]
–	29.8	33	–	–	C=CC(=O)N1CCN(c2nc(OC[C@H]3CCN(C)C3)nc3c(Oc4c(C)ccc5[nH]ncc45)nccc23)CC1 [Example 19E, 1-[4-(8-[(5-methyl-1H-indazol-4-yl)oxy]-2-{[(3S)-1-methylpyrrolidin-3-yl]methoxy}pyrido[3,4-d]pyrimidin-4-yl)piperazin-1-yl]prop-2-en-1-one]
–	3.7	24	–	–	C=CC(=O)N1CCN(c2nc(NCCN3CCN(C)CC3)nc3c(Oc4c(C)ccc5[nH]ncc45)cccc23)CC1 [Example 19F, 1-[4-(8-[(5-methyl-1H-indazol-4-yl)oxy]-2-{[2-(4-methylpiperazin-1-yl)ethyl]amino}quinazolin-4-yl)piperazin-1-yl]prop-2-en-1-one]
